One test has as its system 24-HC in the brain. As to the kind of experiment: Quantification test of 24-HC in mouse brain after repeated oral administration. The class given is in vivo. Particulars: 30 mg/kg orally once a day for 3 days, female C57BL/6N mice, brain 24-HC at 16 hours after the third administration, relative to control group, read-out: Decreasing Rate in 30 mg/kg (%). On the procedure: Animals used were 6-week-old female C57BL/6N mice (3 mice/group). A test compound was suspended in a 0.5% aqueous methylcellulose [133-14255 WAKO] solution (1 mg/mL). The body weight of the mice was measured, and the solution was forcibly administered orally and repeatedly once a day for 3 days. At 16 hours after the third administration, half of the brain was harvested, and the amount of 24-HC was measured.
The wet weight of the brain was measured, and the brain was homogenized with 4-fold amount of saline. This solution was used as a brain extract. The 24-HC in the brain extract was extracted with an acetonitrile solution (98% acetonitrile, 1.98% methanol, 0.02% formic acid), and quantified by HPLC. The average value of 24-HC amount was calculated and the results are shown in relative values with the control group as 100%.

The next test addresses T1, human CH24H (Homo sapiens, UniProt Q9Y6A2).
T1 construct: Using Full-Length Mammalian Gene Collection No. 4819975 (Invitrogen) as a template; made in house; host or cells: FreeStyle 293-F cells, transient transfection with pcDNA3.1(+)/hCH24H; lysate supernatant, not purified
As to the kind of experiment: Measurement of CH24H inhibitory activity (24-HC produced from [14C] cholesterol by human CH24H lysate). The conditions noted are these: 1 μM test compound, [14C] cholesterol 15 μM, 37° C. for 5 hr, read-out: Inhibitory Rate in 1 μM (%). The class given is biochemical. The gist of the method: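 Human CH24H lysate from FreeStyle 293 cells was incubated with compound and 15 μM [14C]cholesterol in 50 mM potassium phosphate pH 7.4 with 0.1% BSA, for 5 h at 37 °C. The 24-HC formed was extracted, separated by silica TLC and quantified by radioactivity. % inhibition was calculated versus no-compound reactions.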

SMILES strings stand for the structures.

T1 sequence (Q9Y6A2 whole entry): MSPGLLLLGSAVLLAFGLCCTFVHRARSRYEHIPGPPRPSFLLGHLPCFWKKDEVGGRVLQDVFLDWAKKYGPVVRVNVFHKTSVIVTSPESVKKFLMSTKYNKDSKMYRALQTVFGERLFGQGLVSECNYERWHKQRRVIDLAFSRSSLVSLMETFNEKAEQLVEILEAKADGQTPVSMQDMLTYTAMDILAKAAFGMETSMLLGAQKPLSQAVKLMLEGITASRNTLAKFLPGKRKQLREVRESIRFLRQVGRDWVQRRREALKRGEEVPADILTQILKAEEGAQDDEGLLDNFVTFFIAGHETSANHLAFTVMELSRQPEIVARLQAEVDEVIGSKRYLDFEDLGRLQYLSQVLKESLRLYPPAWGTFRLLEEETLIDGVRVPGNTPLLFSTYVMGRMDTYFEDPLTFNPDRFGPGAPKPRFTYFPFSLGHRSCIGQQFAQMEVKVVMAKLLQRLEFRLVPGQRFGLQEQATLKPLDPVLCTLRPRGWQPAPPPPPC

For `Cc1cnn(-c2ccncc2N2CCC(C(=O)N3CCC[C@]3(C)C#N)CC2)c1` [Example 127, (2R)-2-methyl-1-((1-(4-(4-methyl-1H-pyrazol-1-yl)pyridin-3-yl)piperidin-4-yl)carbonyl)pyrrolidine-2-carbonitrile], in the test on 24-HC in the brain, the inhibition in vivo at 30 mg/kg worked out at 44%. Moreover, at human CH24H, the inhibition at 1 µM was determined as 79%.
For the compound `Cc1cnc(-c2ccncc2N2CCC(C(=O)N3CCC[C@@H]3C#N)CC2)s1` [Example 129, (2R)-1-((1-(4-(5-methyl-1,3-thiazol-2-yl)pyridin-3-yl)piperidin-4-yl)carbonyl)pyrrolidine-2-carbonitrile], the inhibition in vivo at 30 mg/kg in the test with 24-HC in the brain is 44%. Besides, at human CH24H, the inhibition at 1 µM stood at 82%.
In the same order, the values of `Cc1cnn(-c2ccncc2N2CCC(C(=O)N3CC(F)(F)C[C@@H]3C#N)CC2)c1` [Example 130, (2R)-4,4-difluoro-1-((1-(4-(4-methyl-1H-pyrazol-1-yl)pyridin-3-yl)piperidin-4-yl)carbonyl)pyrrolidine-2-carbonitrile] are 54% and 93%.
The matching figures for `COC[C@H]1CCCN1C(=O)C1CCN(c2cnccc2-c2nnc(C)s2)CC1` [Example 133, ((2R)-2-(methoxymethyl)pyrrolidin-1-yl)(1-(4-(5-methyl-1,3,4-thiadiazol-2-yl)pyridin-3-yl)piperidin-4-yl)methanone]: 70% and 87%.
